Results on 13 compounds are retold here after patent US5631230A, “Receptor selective analogues of cholecystokinin-8” (priority 1994, dated 1997).

Non-standard residues stand in square brackets, D forms with d. Residues, ends and D or L forms follow the SMILES beside them. *: point of attachment. sY = N[C@@H](Cc1ccc(OS(=O)(=O)O)cc1)C(=O)O; X1 = O=C(O)C[C@H](NS(=O)(=O)O)C(=O)*; NMeNle = CCCC[C@H](NC)C(=O)O; Nle = CCCC[C@H](N)C(=O)O

The target in test [1] is T1, [^125 I] CCK-8 binding sites (CCK receptor), Rat Brain (Rattus norvegicus, UniProt P30553).
T1 construct: from tissue; host or cells: rat brain
T1 sequence (P30553 1-452): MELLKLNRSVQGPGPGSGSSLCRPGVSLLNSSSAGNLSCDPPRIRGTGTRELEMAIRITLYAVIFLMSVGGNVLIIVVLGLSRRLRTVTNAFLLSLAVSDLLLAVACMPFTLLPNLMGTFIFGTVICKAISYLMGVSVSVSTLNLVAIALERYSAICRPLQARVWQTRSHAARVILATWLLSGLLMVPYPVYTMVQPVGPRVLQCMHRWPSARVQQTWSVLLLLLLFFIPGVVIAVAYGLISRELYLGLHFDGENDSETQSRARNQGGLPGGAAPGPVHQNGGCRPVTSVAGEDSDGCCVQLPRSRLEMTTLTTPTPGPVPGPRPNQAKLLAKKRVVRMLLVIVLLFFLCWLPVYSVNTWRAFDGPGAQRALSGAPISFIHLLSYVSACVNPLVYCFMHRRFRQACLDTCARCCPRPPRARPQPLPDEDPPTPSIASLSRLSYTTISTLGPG
Description: Inhibition of [125I] CCK-8 binding, rat brain. The settings on record: for Ratio Pancreas/Brain Rat: IC50 pancreas / IC50 brain.

Test [2] concerns the target T2, [^125 I] CCK-8 binding sites (CCK receptor), Rat Pancreas (Rattus norvegicus, UniProt P30551).
T2 construct: from tissue; host or cells: rat pancreas
T2 sequence (P30551 1-444): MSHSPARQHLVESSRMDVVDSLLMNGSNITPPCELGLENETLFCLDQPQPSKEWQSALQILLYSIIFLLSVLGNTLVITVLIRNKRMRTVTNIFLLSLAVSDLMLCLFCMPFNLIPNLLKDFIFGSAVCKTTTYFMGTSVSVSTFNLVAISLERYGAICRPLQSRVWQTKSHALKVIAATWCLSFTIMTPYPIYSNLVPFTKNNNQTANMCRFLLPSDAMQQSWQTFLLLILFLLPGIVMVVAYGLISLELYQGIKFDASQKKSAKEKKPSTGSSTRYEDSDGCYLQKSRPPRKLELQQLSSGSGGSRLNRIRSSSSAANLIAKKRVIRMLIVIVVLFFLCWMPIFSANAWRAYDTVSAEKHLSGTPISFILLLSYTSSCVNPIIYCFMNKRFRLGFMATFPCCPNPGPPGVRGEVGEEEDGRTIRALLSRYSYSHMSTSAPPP
The test is described as follows: Inhibition of [125I] CCK-8 binding, rat pancreas.

Test [3] relates to [^125 I] CCK-8 binding sites (CCK receptor), Guinea Pig Brain. The test is described as follows: Inhibition of [125I] CCK-8 binding, guinea pig brain. The note with it: for Ratio Pancreas/Brain (Guinea Pig): value in brackets, IC50 pancreas / IC50 brain; for IC50: inhibition of [125I] CCK-8 binding, guinea pig brain.
Test [4] deals with T3, [^125 I] CCK-8 binding sites (CCK receptor), Guinea Pig Pancreas (Cavia porcellus, UniProt Q63931).
T3 construct: from tissue; host or cells: guinea pig pancreas
T3 sequence (Q63931 1-430): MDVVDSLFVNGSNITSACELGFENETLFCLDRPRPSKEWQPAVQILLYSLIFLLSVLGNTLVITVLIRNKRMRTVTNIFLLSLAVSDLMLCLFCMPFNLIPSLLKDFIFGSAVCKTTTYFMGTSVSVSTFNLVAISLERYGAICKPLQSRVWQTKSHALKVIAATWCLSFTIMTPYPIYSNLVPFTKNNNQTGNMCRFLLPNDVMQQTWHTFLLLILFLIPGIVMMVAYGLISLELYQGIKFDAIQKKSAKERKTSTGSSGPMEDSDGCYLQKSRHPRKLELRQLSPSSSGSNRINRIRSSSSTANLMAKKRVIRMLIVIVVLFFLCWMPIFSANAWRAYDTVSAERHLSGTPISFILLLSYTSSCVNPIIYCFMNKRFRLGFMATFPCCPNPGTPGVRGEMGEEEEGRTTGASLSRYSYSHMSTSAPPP
Description: Inhibition of [125I] CCK-8 binding, guinea pig pancreas. The note with it: read-out: Guinea Pig Pancreas IV50.

As to `CCCC[C@H](NC(=O)[C@H](Cc1ccc(O)c(O)c1)NC(=O)[C@@H](N)CC(=O)O)C(=O)NCC(=O)N[C@@H](Cc1c[nH]c2ccccc12)C(=O)N[C@@H](CCCC)C(=O)N[C@@H](CC(=O)O)C(=O)N[C@@H](Cc1ccccc1)C(N)=O` [Compound 8, H-Asp-Dopa-Nle-Gly-Trp-Nle-Asp-Phe-NH2], the results for the IC50 in test [1] and in test [2] were 9.7 nM and 0.975 nM, respectively. The “Ratio Pancreas/Brain Rat” value in test [1] amounted to 0.0010.

For `CCCC[C@H](NC(=O)[C@H](Cc1c[nH]c2ccccc12)NC(=O)CNC(=O)[C@H](NC(=O)[C@H](Cc1ccc(O)cc1)NC(=O)[C@@H](N)CC(=O)O)C(C)C)C(=O)N[C@@H](CC(=O)O)C(=O)N[C@@H](Cc1ccccc1)C(N)=O` [Compound 7, H-Asp-Tyr-D-Val-Gly-Trp-Nle-Asp-Phe-NH2], the figures for the IC50 in test [1] and in test [2] were 1.26 nM and 521 nM, respectively. Besides, in test [1], the “Ratio Pancreas/Brain Rat” value was found to be 413.

For `CCCC[C@H](NC(=O)[C@H](Cc1c[nH]c2ccccc12)NC(=O)CNC(=O)[C@H](NC(=O)[C@H](Cc1ccc(OS(=O)(=O)O)cc1)NC(=O)[C@H](CC(=O)O)NS(=O)(=O)O)C(C)C)C(=O)N[C@@H](CC(=O)O)C(=O)N[C@@H](Cc1ccccc1)C(N)=O` [Compound 12, H-Asp-Tyr-D-Val-Gly-Trp-Nle-Asp-Phe-NH2 Bis-SO3 θ] (X1-[sY][dV]GW[Nle]DF-NH2; N-terminus and C-terminus assumed), the “Ratio Pancreas/Brain Rat” value in test [1] was 39.5.

On to `CCCC[C@H](NC(=O)[C@H](Cc1c[nH]c2ccccc12)NC(=O)CNC(=O)[C@H](CCCC)N(C)C(=O)[C@H](Cc1ccc(OS(=O)(=O)O)cc1)NC(=O)[C@H](CC(=O)O)NS(=O)(=O)O)C(=O)N[C@@H](CC(=O)O)C(=O)N[C@@H](Cc1ccccc1)C(N)=O` [Compound 9, H-Asp-Tyr-N-MeNle-Gly-Trp-Nle-Asp-Phe-NH2 Bis-SO3 θ] (X1-[sY][NMeNle]GW[Nle]DF-NH2; N-terminus assumed), for which the “Ratio Pancreas/Brain (Guinea Pig)” value in test [3] was 9099. Moreover, the IC50 in test [3] stood at 3.19 nM; in test [4] it was 29100 nM.

As for `CCCC[C@H](NC(=O)[C@H](Cc1c[nH]c2ccccc12)NC(=O)CNC(=O)[C@@H](NC(=O)[C@H](Cc1ccc(O)cc1)NC(=O)[C@@H](N)CC(=O)O)C(C)C)C(=O)N[C@@H](CC(=O)O)C(=O)N[C@@H](Cc1ccccc1)C(N)=O` [Compound 6, H-Asp-Tyr-Val-Gly-Trp-Nle-Asp-Phe-NH2], the IC50 in test [1] is 0.318 nM; in test [2] it was 10.6 nM. In addition, in test [1], the “Ratio Pancreas/Brain Rat” value worked out at 33.5.

In the case of `CCCC[C@H](NC(=O)[C@H](Cc1ccc(OS(=O)(=O)O)cc1)NC(=O)[C@H](CC(=O)O)NS(=O)(=O)O)C(=O)NCC(=O)N[C@@H](Cc1c[nH]c2ccccc12)C(=O)N(C)[C@@H](CCCC)C(=O)N[C@@H](CC(=O)O)C(=O)N[C@@H](Cc1ccccc1)C(N)=O` [Compound 10, H-Asp-Tyr-Nle-Gly-Trp-N-MeNle-Asp-Phe-NH2 -Bis-SO3θ] (X1-[sY][Nle]GW[NMeNle]DF-NH2; N-terminus assumed), in test [1], the IC50 turned out to be 0.496 nM and the “Ratio Pancreas/Brain Rat” value came to 2.81. For the same compound, the IC50 in test [2] was determined as 1.39 nM.

In turn, `CSCC[C@H](NC(=O)[C@H](Cc1ccc(OS(=O)(=O)O)cc1)NC(=O)[C@@H](N)CC(=O)O)C(=O)NCC(=O)N[C@@H](Cc1c[nH]c2ccccc12)C(=O)N[C@@H](CCSC)C(=O)N[C@@H](CC(=O)O)C(=O)N[C@@H](Cc1ccccc1)C(N)=O` [CCK-8, Asp-Tyr-(SO3^-)-Met-Gly-Trp-Met-Asp-Phe-NH2, reference compound] returned an IC50 in test [2] of 0.129 nM.

`CCCC[C@@H](C(=O)N[C@@H](CC(=O)O)C(=O)N[C@@H](Cc1ccccc1)C(N)=O)N(C)C(=O)[C@H](Cc1c[nH]c2ccccc12)NC(=O)CN` [Compound 1, H-Gly-Trp-N-MeNle-Asp-Phe-NH2] (H-GW[NMeNle]DF-NH2): the figures for the IC50 in test [4], in test [1] and in test [2] were 8000 nM, 4.67 nM and more than 10000 nM, respectively.

For the compound `CCCC[C@@H](C(=O)N[C@@H](CC(=O)O)C(=O)N[C@@H](Cc1ccccc1)C(N)=O)N(C)C(=O)[C@H](Cc1c[nH]c2ccccc12)NC(=O)CNC(=O)[C@H](CCCC)N(C)C(=O)[C@H](Cc1ccc(OS(=O)(=O)O)cc1)NC(=O)[C@H](CC(=O)O)NS(=O)(=O)O` [Compound 3, H-Asp-Tyr-N-MeNle-Gly-Trp-N-MeNle-Asp-Phe-NH2 Bis-SO3^θ] (X1-[sY][NMeNle]GW[NMeNle]DF-NH2; N-terminus assumed), the IC50 in test [1] came to 1.41 nM; in test [2], 0.46 nM. For the same compound, the “Ratio Pancreas/Brain Rat” value in test [1] was 0.29.

Turning to `CCCC[C@H](NC(=O)[C@H](Cc1ccc(O)cc1)NC(=O)[C@@H](N)CC(=O)O)C(=O)NCC(=O)N[C@@H](Cc1c[nH]c2ccccc12)C(=O)N(C)[C@@H](CCCC)C(=O)N[C@@H](CC(=O)O)C(=O)N[C@@H](Cc1ccccc1)C(N)=O` [Compound 5, H-Asp-Tyr-Nle-Gly-Trp-N-MeNle-AsP-Phe-NH2], in test [1], the IC50 worked out at 976 nM and the “Ratio Pancreas/Brain Rat” value is 0.17. The compound also showed an IC50 in test [2] of 170 nM.

As for `CCCC[C@H](NC(=O)[C@H](Cc1c[nH]c2ccccc12)NC(=O)CNC(=O)[C@@H](NC(=O)[C@H](Cc1ccc(OS(=O)(=O)O)cc1)NC(=O)[C@H](CC(=O)O)NS(=O)(=O)O)C(C)C)C(=O)N[C@@H](CC(=O)O)C(=O)N[C@@H](Cc1ccccc1)C(N)=O` [Compound 11, H-Asp-Tyr-Val-Gly-Trp-Nle-Asp-Phe-NH2 Bis-SO3 θ] (X1-[sY]VGW[Nle]DF-NH2; N-terminus and C-terminus assumed), the “Ratio Pancreas/Brain Rat” value in test [1] was found to be 33.46.

For the compound `CCCC[C@H](NC(=O)[C@H](Cc1c[nH]c2ccccc12)NC(=O)CNC(=O)[C@H](CCCC)N(C)C(=O)[C@H](Cc1ccc(O)cc1)NC(=O)[C@@H](N)CC(=O)O)C(=O)N[C@@H](CC(=O)O)C(=O)N[C@@H](Cc1ccccc1)C(N)=O` [Compound 4, H-Asp-Tyr-N-MeNle-Gly-Trp-Nle-Asp-Phe-NH2], in test [1], the IC50 turned out to be 1.45 nM and the “Ratio Pancreas/Brain Rat” value was found to be 32.2. This compound also returned an IC50 in test [2] of 46.7 nM.

As for `CCCC[C@@H](C(=O)N[C@@H](CC(=O)O)C(=O)N[C@@H](Cc1ccccc1)C(N)=O)N(C)C(=O)[C@H](Cc1c[nH]c2ccccc12)NC(=O)CNC(=O)[C@H](CCCC)N(C)C(=O)[C@H](Cc1ccc(O)cc1)NC(=O)[C@@H](N)CC(=O)O` [Compound 2, H-Asp-Tyr-N-MeNle-Gly-Trp-N-MeNle-Asp-Phe-NH2], in test [3], the “Ratio Pancreas/Brain (Guinea Pig)” value is recorded as 4146. Moreover, the IC50 in test [3] stood at 0.23 nM; in test [4], 958 nM; in test [1] it was 0.131 nM; in test [2], 1030 nM. The “Ratio Pancreas/Brain Rat” value in test [1] is given as 7,863.
